In assay [1] the test system is AMN human patient-derived primary fibroblasts. Nature of the assay: Hexacosanoic acid (VLCFA) level in AMN patient-derived fibroblasts, LC-MS. The class given is cell-based. To be noted: AMN patient-derived fibroblasts. The procedure:
In order to compare the efficacy of PXL770 and metformin to lower very long chain fatty acids (VLCFA) in vitro, the study focuses on the level assessment of the hexacosanoic acid, which is the most prevalent VLCFA, in healthy control cells and in AMN human patient-derived primary fibroblasts. The cell lines were obtained from Coriell Cell Repositories. Fibroblasts were cultured in DMEM with 15% FBS. The cultures were split in 1:5 ratio. Fibroblasts from healthy patients were used as control. All treatments were in complete media containing fetal bovine serum (FBS, 15%). All cultured cells were maintained at 37° C. in 5% CO2.
VLCFA content was then measured as follows. Samples are adjusted to a final volume of 0.5-1 ml with LC-MS grade water and spiked with 10 ng of Lignoceric acid-d4 as an internal standard. The sample is acidified to pH 3-4 with dilute hydrochloric acid and extracted with isooctane-ethyl acetate (9:1) three times with equal volume. The extract is dried under nitrogen and the residue is reconstituted in methanol-water-ammonium acetate (75:25:10 mM).
Total fatty acids: After preparing the samples with internal standard as described above for free fatty acids, aqueous sodium hydroxide is added to a final concentration of 1 M. The mixture is incubated at 37° C. in dark under nitrogen for 3 h. The samples are then acidified, extracted, and reconstituted as described above.
LC-MS analysis of fatty acids: The reconstituted fatty acid extracts are subjected to HPLC on Targa C8 column (2×10 mm) using methanol-aqueous ammonium acetate (10 mM) solvent mixture. The column is eluted with a gradient of methanol (75 to 90%) over 8 min at a flow rate of 0.25 ml/min. The column eluent is directly introduced to mass analyzer (QTRAP5500) and monitored for fatty acids using published pseudo MRM method. Under these conditions, the VLCFA elute between 5 and 8 min. Each fatty acid is quantitated against the added internal standard.
The study planned different groups of patients. First, the evolution of hexacosanoic acid in fibroblasts is monitored in healthy control cells and in AMN human patient-derived primary fibroblasts; and in a second time a treatment of PXL770 was assigned to AMN human-derived primary fibroblasts in culture at different doses (PXL770: 0.1, 0.5, 1, 2, 3.5 and 5 μM; metformin: 100, 200, 300 and 400 μM) for one week and the level of hexacosanoic acid was measured.
The experiment described in Example 3 was reproduced with various thienopyridone compounds, namely: • PXL770: potassium 2-chloro-3-(5-hydroxytetralin-6-yl)-6-oxo-5-phenyl-7H-thieno[2,3-b]pyridin-4-olate • PXL700: 2-chloro-4-hydroxy-3-indan-5-yl-5-(3-pyridyl)-7H-thieno[2,3-b]pyridin-6-one • PXL702: 2-chloro-4-hydroxy-3-(4-hydroxyindan-5-yl)-5-phenyl-7H-thieno[2,3-b]pyridin-6-one • PXL695: 2-chloro-5-(3-fluorophenyl)-4-hydroxy-3-(4-hydroxyindan-5-yl)-7H-thieno[2,3-b]pyridin-6-one, • each tested at concentrations from 0.1 to 5 μM.
A one-way ANOVA with Dunnett's multiple comparison test was performed to assess the effect of PXL770 on brain's VLCFAs (**** p<0.0001, *** p<0.001). A Kruskal-Wallis test with Dunn's multiple comparison test was performed to assess the effect of PXL770 on plasma's VLCFAs (**** p<0.0001, […]).

In another assay the test system is cultured fibroblasts. The following applies: cited from earlier work.
The subject of assay [2] is ALD patient-derived lymphocytes. The following applies: ALD patient's derived lymphocytes, 5 mM, 7 days of treatment; FIG. 9; cited from earlier work.
Assay [3] deals with ABCD2. To be noted: ALD patient's derived fibroblasts, 5 mM; FIG. 11; cited from earlier work.
Assay [4] has as its system ABCD2. The following applies: ABCD1-KO mice glial cells, 100 μM; FIG. 12; cited from earlier work.
The subject of assay [5] is ABCD2. To be noted: AMN patient's derived fibroblasts, 5 mM; FIG. 11; cited from earlier work.
For assay [6], the system named is AMN human patient-derived primary lymphocytes. To be noted: AMN patient's derived lymphocytes, 5 mM, 7 days of treatment; FIG. 9; cited from earlier work.
Setting [7] is: concentrations from 0.1 to 5 μM, FIG. 14.

The structures appear in SMILES notation. Like-named read-outs stand apart in the source and are kept apart here.

As for `O=c1[nH]c2sc(Cl)c(-c3ccc4c(c3O)CCC4)c2c(O)c1-c1ccccc1` [PXL702, 2-chloro-4-hydroxy-3-(4-hydroxyindan-5-yl)-5-phenyl-7H-thieno[2,3-b]pyridin-6-one], the VLCFA levels entry in assay [1] (setting [7]) is recorded as “comparable decrease”.
On to `O=c1[nH]c2sc(Cl)c(-c3ccc4c(c3)CCC4)c2c(O)c1-c1cccnc1` [PXL700, 2-chloro-4-hydroxy-3-indan-5-yl-5-(3-pyridyl)-7H-thieno[2,3-b]pyridin-6-one, reference compound], for which the VLCFA levels entry in assay [1] (setting [7]) is recorded as “no or a very limited effect”.
As for `CN(C)C(=N)N=C(N)N` [metformin], in the assay on cultured fibroblasts, the “dose at which efficacy is observed” value is “at least 100 μM”. Moreover, the “decrease of VLCFA content” value in assay [2] is recorded as −42%; in assay [6] it was −29%. The ABCD2 protein expression result in the assay on ABCD2 [3] and in the assay with ABCD2 [5] was “only slightly increased” each time. Moreover, the ABCD2 protein levels entry in the assay on ABCD2 [4] was “limited increase”. The VLCFA levels entry in assay [1] (400 μM, compared with thienopyridones at 5 μM, FIG. 15) was “no or a very limited effect”.
On to `O=c1[nH]c2sc(Cl)c(-c3ccc4c(c3O)CCC4)c2c(O)c1-c1cccc(F)c1` [PXL695, 2-chloro-5-(3-fluorophenyl)-4-hydroxy-3-(4-hydroxyindan-5-yl)-7H-thieno[2,3-b]pyridin-6-one], for which the VLCFA levels entry in assay [1] (setting [7]) is listed as “comparable decrease”.

These data come from patent US11850238B2, “Use of a thienopyridone derivative in the treatment of adrenoleukodystrophy or adrenomyeloneuropathy” (POXEL, priority 2020, dated 2023).
